Measured values reported in patent US12459957B2, “Therapeutic compounds and methods” (GENENTECH, INC., priority 2021, dated 2025).

How the values were obtained:
[1] = system: neutrophils (PMA-stimulated ROS); assay: ROS detection assay (ROS-Glo, H2O2); format: cell-based; conditions: Neutrophil; human neutrophils, 30 min preincubation, 50 nM PMA for 30 min
Experimental: ROS were measured in neutrophils using the ROS-Glo bioluminescent assay (Promega) for the direct detection of H2O2. Neutrophils were isolated from fresh human blood using a biphasic Histopaque gradient as described here. Cells (100 uL per well) were plated in 96-well plates at a density of 200,000 cells/mL in high glucose DMEM medium. Cells were preincubated with either DMSO vehicle or compounds (10-point dilution curve starting at 2 uM with 3-fold serial dilution) for 30 min, and then stimulated with 50 nM PMA for 30 min. Luminescence, after the addition of H2O2 substrate solution for 20 min, and then ROS-Glo detection solution for 20 min, was recorded on a luminescence plate reader. The fifty percent inhibitory concentration (IC50) was determined with GraphPad Prism by plotting the assay output (RLU) versus the logarithm of the compound concentration using a non-linear sigmoid with variable slope algorithm with the default curve-fitting parameters in the Prism software.

[2] = system: neutrophils (PMA-stimulated NETosis); assay: Quantification of NETosis using SYTOX Green; format: cell-based, human; conditions: for 5 uM (% NETosis): compound at 5 uM, NET-forming cells as percentage of total cells, vehicle 79.66, untreated 14.54
Description: Semi-automated analysis of both phase and fluorescence images of SYTOX Green-stained neutrophils used a MATLAB algorithm. Total cells were counted by scoring phase standard deviation and radial symmetry. NETosis was classified in cells by measuring the DNA area in the fluorescence image and comparing with a select internal training set for each experiment. Unstimulated cells and PMA-stimulated, pyocyanin-inhibited cells served as negative controls. PMA-stimulated cells served as a positive control. NET-forming cells are presented as a percentage of total cells.

## CC(=O)Nc1ccc2c(c1)OCc1cc(-c3ccccc3)nn1C2 [Example 1, N-(2-Phenyl-4H,10H-benzo[f]pyrazolo[5,1-c][1,4]oxazepin-7-yl)acetamide]
[1]
  IC50: 93 nM
[2]; Homo sapiens, Neutrophil, NETosis, SYTOX Green-stained neutrophils, PMA-stimulated
  IC50: 190 ± 30 nM
[2]
  5 uM (% NETosis): 37.78%

## c1ccc(-c2cc3n(n2)Cc2ccc(Nc4cn[nH]c4)cc2OC3)cc1 [Example 19]
[1]
  IC50: > 20000 nM
[2]
  5 uM (% NETosis): 62.75%

## Cc1cc(Nc2ccc3c(c2)OCc2cc(-c4ccccc4)nn2C3)[nH]n1 [Example 33]
[1]
  IC50: > 20000 nM
[2]
  5 uM (% NETosis): 69.42%

## c1ccc(-c2cc3n(n2)Cc2ccc(Nc4ccn[nH]4)cc2OC3)cc1 [Example 36]
[1]
  IC50: 1400 nM
[2]
  5 uM (% NETosis): 46.06%

## N#CCNc1ccc2c(c1)OCc1cc(-c3ccccc3)nn1C2 [Example 39]
[1]
  IC50: 510 nM
[2]
  5 uM (% NETosis): 52.08%

## CC(=O)Nc1ccc2c(c1)OCc1cc(-c3cncs3)nn1C2 [Example 54]
[1]
  IC50: > 20000 nM
[2]
  5 uM (% NETosis): 37.45%

## CC(=O)Nc1ccc2c(c1)OCc1cc(-c3ccccc3F)nn1C2 [Example 55]
[1]
  IC50: 46 nM
[2]
  5 uM (% NETosis): 36.33%

## CC(=O)Nc1ccc2c(c1)OCc1cc(-c3cc(C)nn3C)nn1C2 [Example 58]
[1]
  IC50: 2440 nM
[2]
  5 uM (% NETosis): 53.96%

## CC(=O)Nc1ccc2c(c1)OCc1cc(-c3cnn(C(F)F)c3)nn1C2 [Example 67, N-(2-(1-(difluoromethyl)-1H-pyrazol-4-yl)-4H,10H-benzo[f]pyrazolo[5,1-c][1,4]oxazepin-7-yl)acetamide]
[1]
  IC50: 192 nM
[2]
  5 uM (% NETosis): 39.88%

## CC(=O)Nc1ccc2c(c1)OCc1cc(-c3ccncc3C)nn1C2 [Example 68]
[1]
  IC50: 233 nM
[2]
  5 uM (% NETosis): 43.49%

## CC(=O)Nc1ccc2c(c1)OCc1cc(-c3cnn(C4CCCCO4)c3)nn1C2 (stereo not shown) [Example 115]
[1]
  IC50: 7750 nM

## CC(=O)Nc1ccc2c(c1)OCc1cc(-c3cnn(CF)c3)nn1C2 [Example 117]
[1]
  IC50: 204 nM

## CC(=O)Nc1ccc2c(c1)OCc1cc(-c3c[nH]nc3C3CC3)nn1C2 [Example 118]
[1]
  IC50: > 20000 nM

## CC(=O)Nc1ccc2c(c1)OCc1cc(-c3cnn(C4COC4)c3)nn1C2 [Example 119]
[1]
  IC50: 714 nM

## CC(=O)Nc1ccc2c(c1)OCc1cc(-c3cnn(CC(C)C)c3)nn1C2 [Example 120]
[1]
  IC50: 346 nM

## CC(=O)Nc1ccc2c(c1)OCc1cc(-c3cnn(C)c3C)nn1C2 [Example 121]
[1]
  IC50: 836 nM

## CC(=O)Nc1ccc2c(c1)OCc1cc(-c3cnn4c3CCC4)nn1C2 [Example 122]
[1]
  IC50: 1200 nM

## CC(=O)Nc1ccc2c(c1)OCc1cc(-c3ccncc3)nn1C2 [Example 124]
[1]
  IC50: 410 nM

## CC(=O)Nc1ccc2c(c1)OCc1cc(-c3cnn(C(F)(F)F)c3)nn1C2 [Example 125, N-(2-(1-(trifluoromethyl)-1H-pyrazol-4-yl)-4H,10H-benzo[f]pyrazolo[5,1-c][1,4]oxazepin-7-yl)acetamide]
[1]
  IC50: 56 nM

## CC(=O)Nc1ccc2c(c1)OCc1cc(-c3ccnc(C)c3)nn1C2 [Example 126]
[1]
  IC50: 529 nM

## CC(=O)Nc1ccc2c(c1)OCc1cc(-c3cccnc3)nn1C2 [Example 127]
[1]
  IC50: 1360 nM

## CC(=O)Nc1ccc2c(c1)OCc1cc(-c3cncnc3)nn1C2 [Example 128]
[1]
  IC50: 3100 nM

## CC(=O)Nc1ccc2c(c1)OCc1cc(-c3ccncc3F)nn1C2 [Example 129]
[1]
  IC50: 903 nM
